This note sets out measurements from patent US8785638B2, “Thieno [2, 3-B] pyridine derivatives as viral replication inhibitors” (Katholieke Universiteit Leuven, priority 2009, dated 2014).

Data set [1] deals with LEDGF/p75-HIV-1 integrase interaction (Human immunodeficiency virus type 1 group M subtype B (isolate HXB2) (HIV-1), UniProt P04585). Kind of data set: AlphaScreen assay of LEDGF-integrase interaction inhibition. The class given is binding. As for the experimental part: Alphascreen Assay to Measure the LEDGF-Integrase Interaction Inhibitory Activity of Compounds of the Invention
The AlphaScreen assay was performed according to the manufacturer's protocol (Perkin Elmer, Benelux). Reactions were performed in 25 μl final volume in 384-well Optiwell™ microtiter plates (Perkin Elmer). The reaction buffer contained 25 mM Tris-HCl (pH 7.4), 150 mM NaCl, 1 mM MgCl2, 0.01% (v/v) Tween-20 and 0.1% (w/v) bovine serum albumin. His6-tagged integrase (300 nM final concentration) was incubated with the compounds for 30 min at 4° C. The compounds were added at varying concentrations spanning a wide range from 0.1 up to 100 μM. Afterwards 100 nM flag-LEDGF/p75 was added and incubation was prolonged for an additional hour at 4° C. Subsequently 5 μl of Ni-chelate-coated acceptor beads and 5 μl anti-flag donor beads were added to a final concentration of 20 μg/ml of both beads. Proteins and beads were incubated for 1 h at 30° C. in order to allow association to occur. Exposure of the reaction to direct light was omitted as much as possible and the emission of light from the acceptor beads was measured in the EnVision plate reader (Perkin Elmer, Benelux) and analyzed using the EnVision manager software. IN/DNA binding was analyzed in a similar setting using His6-tagged integrase (1 μM final concentration) and an oligodeoxynucleotide mimicking the IN ELISA oligonucleotide substrate (30 nM final concentration). Counterscreens with JPO2 or PogZ, respectively, were essentially performed as described previously.
His6-tagged HIV-1 integrase, 3xflag-tagged LEDGF/p75, MBP-JPO2 and MBP-PogZ were purified for AlphaScreen applications as described previously 23,25,56.
A general note: Alpha assays give light when donor and acceptor beads are brought close together.

Data set [2] relates to HIV-1 (IIIB), HIV-1 (NL4.3). Briefly: microbe, parasite or virus in culture. To be noted: for EC50: Human immunodeficiency virus 1, IIIB, MT4, MT-4 cells, 50% protection against HIV-induced cytopathogenic effect, MTT; for SI: selectivity index, ratio of CC50 to EC50. It is filed as cell-based. As for the experimental part: (§1) A rapid and automated assay procedure was used for the in vitro evaluation of anti-HIV agents. An HTLV-1 transformed T4-cell line MT-4, which was previously shown to be highly susceptible to and permissive for HIV infection, served as the target cell line. Inhibition of the HIV-induced cytopathogenic effect was used as the end point. The viabitlity of both HIV- and mock-infected cells was assessed spectrophotometrically via in situ reduction of 3-(4,5-dimethylthiazol-2-yl)-2,5-diphenyltetrazolium bromide (MTT). The 50% cytotoxic concentration (CC50 in μM or μg/ml) was defined as the concentration of compound that reduced the absorbance of the mock-infected control sample by 50%. The percent protection achieved by the compound in HIV-infected cells was calculated by the following formula:
(§2) [formula] whereby (ODT)HIV is the optical density measured with a given concentration of the test compound in HIV-infected cells; (ODC)HIV is the optical density measured for the control untreated HIV-infected cells; (ODC)MOCK is the optical density measured for the control untreated mock-infected cells; all optical density values were determined at 540 nm. The dose achieving 50% protection according to the above formula was defined as the 50% inhibitory concentration (EC50 in μM or μg/ml). The ratio of CC50 to EC50 was defined as the selectivity index (SI). […] Examples of inhibition of cell proliferation by particular compounds of the invention can be found by looking at the respective CC50 values in the MT-4 cell line. Cells:
(§3) MT-4 cells (Miyoshi et al., 1982) were grown and maintained in RPMI 1640 medium supplemented with 10% heat-inactivated fetal calf serum, 2 mM I-glutamine, 0.1% sodium bicarbonate, and 20 μg of gentamicin per ml. Alternatively, the MT-4 cells may also be grown in RPMI 1640 medium supplemented with 10% FCS and 20 μg/ml of gentamicin (RPMI-complete).
The HIV-1 (IIIB) strain (Popovic et al., 1984) as well as the HIV-1 (NL4.3) strain (Adachi et al., J. Virol. 59, 284-291 (1986)) were used.
In general terms: Protection from cytopathic effect is a common read-out in antiviral testing.

Data set [3] is described as follows: Cytotoxicity in mock-infected MT-4 cells (MTT). It is filed as cell-based. The settings on record: human, 50% cytotoxic concentration. How it is done:
as §1, §2, §3

[4] abbreviates: His6-tagged integrase 300 nM, flag-LEDGF/p75 100 nM, read-out: Alphascreen IC50.

One may read the IC50 as the midpoint of a concentration-inhibition curve. One may read the EC50 as the concentration at which the effect is half-maximal. Usually CC50 stands for the concentration at which the toxic effect on the cells reaches its halfway point. Low values mean harm at low concentration, high ones better tolerance by the cells.

Where two headings read alike, the source gives them in different places.

With `CCCC(C(=O)O)c1c(C)nc2sc(C)cc2c1-c1ccc(C)cc1` (centres unmarked) [Cpd 110, 2-(2,6-Dimethyl-4-p-tolylthieno[2,3-b]pyridin-5-yl)pentanoic acid], the IC50 in data set [1] (setting [4]) turned out to be 4.31 µM. Moreover, in data set [2], the EC50 was 0.76 µM and the SI is 95. Moreover, the CC50 in data set [3] was determined as 72.2 µM.
With `CCCC(C(=O)O)c1c(C)nc2sc3c(c2c1-c1ccc(Cl)cc1)CCC3` (centres unmarked) [Cpd 112, 2-[2-Methyl-4-(4-chlorophenyl)-6,7-dihydro-5H-cyclopenta[4,5]thieno[2,3-b]pyridin-3-yl]pentanoic acid], the IC50 in data set [1] (setting [4]) came out at 1.11 µM. In data set [2], the 50% effective concentration (EC50) amounted to 0.803 µM and the SI amounted to 84. In addition, it took 67.7 µM to reach half-maximal cytotoxicity in data set [3] (CC50).
Consider `CCCC(C(=O)O)c1c(C)nc2sc3c(c2c1-c1ccc(Cl)c(Cl)c1)CCCC3` (centres unmarked) [Cpd 139, 2-[2-Methyl-4-(3,4-dichlorophenyl)-5,6,7,8-tetrahydro[1]benzothieno[2,3-b]pyridin-3-yl]pentanoic acid], for which, in data set [1] (setting [4]), the concentration for half-maximal inhibition (IC50) was determined as 9.24 µM. Moreover, in data set [2], the concentration for a half-maximal effect (EC50) was found to be 5.32 µM and the SI came to 10. This molecule also had a 50% cytotoxic concentration (CC50) in data set [3] of 55.1 µM.
For `CCCC(C(=O)O)c1c(C)nc2sc3ccccc3c2c1-c1ccc(C)cc1` (centres unmarked) [Cpd 120, 2-[2-Methyl-4-p-tolylbenzo[4,5]thieno[2,3-b]pyridin-3-yl]pentanoic acid] the same measures were 2.72 µM, 1.51 µM, 67 and 101 µM.
Molecule `CCCC(C(=O)O)c1c(C)nc2sc3c(c2c1-c1ccc(C)cc1)CCCCC3` (centres unmarked) [Cpd 135] yielded an IC50 in data set [1] of 55.8 µM. Further, in data set [2], the 50% effective concentration (EC50) worked out at 42.4 µM and the SI is recorded as 3. It took 109 µM to reach half-maximal cytotoxicity in data set [3] (CC50).
For `CCCC(C(=O)NC#N)c1c(C)nc2sc3c(c2c1-c1ccc(C)cc1)CCCC3` (centres unmarked) [Cpd 166, N-cyano-2-[2-Methyl-4-p-tolyl-5,6,7,8-tetrahydro[1]benzothieno[2,3-b]pyridin-3-yl]pentanamide], the IC50 in data set [1] (setting [4]) came out at 3 µM. Also, the EC50 in data set [2] was > 131 µM. This molecule had a CC50 in data set [3] of 131 µM.
On to `CCCC(C(=O)O)c1c(C)nc2sc3c(c2c1-c1ccc(C)cc1)CC(C)C3` (centres unmarked) [Cpd 127, 2-[2-methyl-6-methyl-4-p-tolyl-6,7-dihydro-5H-cyclopenta[4,5]thieno[2,3-b]pyridin-3-yl]pentanoic acid], for which, in data set [1] (setting [4]), the half-maximal inhibitory concentration (IC50) turned out to be 2.85 µM. Further, in data set [2], the EC50 stood at 0.79 µM and the SI was found to be 105. The midpoint of cytotoxicity in data set [3], the CC50, lay at 82.9 µM.
On the same counts, the results for `CCC[C@H](C(=O)O)c1c(C)nc2sc3c(c2c1-c1ccc(C)cc1)CCCC3` [Cpd 114, (2S)-[2-Methyl-4-p-tolyl-5,6,7,8-tetrahydro[1]benzothieno[2,3-b]pyridin-3-yl]pentanoic acid] are < 1 µM, 0.58 µM, 217 and 126 µM.
For `CCCC(C(=O)O)c1c(C)nc2sc3c(c2c1-c1ccc(OC)c(OC)c1)CCCC3` (centres unmarked) [Cpd 145, 2-[2-Methyl-4-(3,4-dimethoxyphenyl)-5,6,7,8-tetrahydro[1]benzothieno[2,3-b]pyridin-3-yl]pentanoic acid] the same measures were 29.6 µM, 123 µM, >1 and > 125 µM.
Regarding `CCCC(C(=O)O)c1c(C)nc2scc(-c3ccccc3)c2c1-c1ccc(C)cc1` (centres unmarked) [Cpd 143], the IC50 in data set [1] (setting [4]) was 49.2 µM. Besides, the EC50 in data set [2] is > 66 µM. In data set [3], this molecule registered a CC50 of 66 µM.
`CCCC(c1nnn[nH]1)c1c(C)nc2sc3c(c2c1-c1ccc(C)cc1)CCCC3` (centres unmarked) [Cpd 175, 2-Methyl-4-(p-tolyl)-3-[1-(1H-tetrazol-5-yl)butyl]-5,6,7,8-tetrahydro[1]benzothieno[2,3-b]pyridine]: the IC50 in data set [1] (setting [4]) is < 1 µM. In addition, in data set [2], the half-maximal effective concentration (EC50) was found to be 8.89 µM and the SI amounted to 9. In data set [3], this molecule displayed a CC50 of 79.2 µM.
`CCCC(C(=O)O)c1c(C)nc2sc3c(c2c1-c1cccc(Cl)c1)CCCC3` (centres unmarked) [Cpd 138, 2-[2-Methyl-4-(3-chlorophenyl)-5,6,7,8-tetrahydro[1]benzothieno[2,3-b]pyridin-3-yl]pentanoic acid]: the concentration for half-maximal inhibition (IC50) in data set [1] (setting [4]) was determined as 39.9 µM. Also, in data set [2], the EC50 came out at 43.3 µM and the SI came out at 2. The same molecule showed a CC50 in data set [3] of 100 µM.
On the same counts, the results for `CCCC(C(=O)O)c1c(C)nc2sc3c(c2c1-c1ccc(C)cc1OC)CCCC3` (centres unmarked) [Cpd 160, 2-[2-methyl-4-(2-methoxy-4-methylphenyl)-5,6,7,8-tetrahydro[1]benzothieno[2,3-b]pyridin-3-yl]pentanoic acid] are 17.7 µM, 14.4 µM, 5 and 74 µM.
Consider `CCC(C)C(C(=O)O)c1c(C)nc2sc3c(c2c1-c1ccc(C)cc1)CCCC3` (centres unmarked) [Cpd 157, 2-[2-Methyl-4-(p-tolyl)-5,6,7,8-tetrahydro[1]benzothieno[2,3-b]pyridin-3-yl]-3-methylpentanoic acid], for which the IC50 in data set [1] (setting [4]) was determined as 26.4 µM. Further, the EC50 in data set [2] was > 35 µM. The same molecule had a CC50 in data set [3] of 35 µM.
In the case of `Cc1nc2sc3c(c2c(-c2cnn(C)c2)c1C(OC(C)(C)C)C(=O)O)CCCC3` (centres unmarked) [Cpd 177, 2-[2-methyl-4-(1-methyl-1H-pyrazol-4-yl)-5,6,7,8-tetrahydro[1]benzothieno[2,3-b]pyridin-3-yl]-2-tert-butoxyacetic acid], the IC50 in data set [1] (setting [4]) was 11.7 µM. Further, in data set [2], the EC50 came to 1.17 µM and the SI was >181. Also, the CC50 in data set [3] is > 212 µM.
For `CCC[C@@H](C(=O)O)c1c(C)nc2sc3c(c2c1-c1ccc(C)cc1)CCCC3` [Cpd 115, (2R)-[2-Methyl-4-p-tolyl-5,6,7,8-tetrahydro[1]benzothieno[2,3-b]pyridin-3-yl]pentanoic acid] the same measures were 17.6 µM, 5.03 µM, 26 and 131 µM.
On the same counts, the results for `CCCC(C(=O)O)c1c(C)nc2sccc2c1-c1ccc(C)cc1` (centres unmarked) [Cpd 119, 2-(6-Methyl-4-p-tolylthieno[2,3-b]pyridin-5-yl)pentanoic acid] are 2.66 µM, 31.6 µM, 4 and 109 µM.
For `CCCC(C(=O)O)c1c(C)nc2sc3c(c2c1-c1ccc(Cl)cc1)CCCC3` (centres unmarked) [Cpd 148, 2-[2-Methyl-4-(4-chlorophenyl)-5,6,7,8-tetrahydro[1]benzothieno[2,3-b]pyridin-3-yl]pentanoic acid] the same measures were 2.19 µM, 0.53 µM, 132 and 70 µM.
With `CCCC(C(=O)O)c1c(C)nc2sc(C)c(C)c2c1-c1ccc(C)cc1` (centres unmarked) [Cpd 108, 2-(2,3,6-Trimethyl-4-p-tolylthieno[2,3-b]pyridin-5-yl)pentanoic acid], the IC50 in data set [1] (setting [4]) was found to be 4.48 µM. For the same molecule, in data set [2], the response was half-maximal at 2.19 µM (EC50) and the SI was determined as 27. Moreover, in data set [3], it took 57.9 µM to reach half-maximal cytotoxicity (CC50).
On the same counts, the results for `Cc1ccc(-c2c(C(CC(C)(C)C)C(=O)O)c(C)nc3sc4c(c23)CCCC4)cc1` (centres unmarked) [Cpd 162, 2-[2-Methyl-4-(p-tolyl)-5,6,7,8-tetrahydro[1]benzothieno[2,3-b]pyridin-3-yl]-4,4-dimethylpentanoic acid] are 1.57 µM, 0.33 µM, 217 and 71.7 µM.
